Assay results taken from US6720480B2, “Maize proteinase inhibitor-like polynucleotides and defense-activated promoter, transformed plants, and methods of use” (Pioneer Hi-Bred International, Inc., priority 2000, dated 2004).
Values joined by “and” are separate entries in the source; they are usually repeats but may differ in a detail not shown here. Equal entries are not always repeated.

Assays:
[1] = system: nucleotide sequences operably linked to the proteinase inhibitor-like promoter; details: HC-toxin 1 μg/ml; Northern analysis, average of 3 repeated experiments
[2] = system: zmBBI1::GUS (proteinase inhibitor-like promoter); assay: Co-bombardment of maize immature embryos with zmBBI1::GUS, GUS fluorometric assay after chemical treatment; format: cell-based; details: for normalized promoter activity (GUS/Luci), Table 2b: Lucif adj for SA (/0.38); for normalized promoter activity (GUS/Luci), Table 2a: luciferase of sample with no chemicals; for GUS/Luci: Lucif adj for SA and JA (Luci for none); for GUS/Luci / GUS pmol MU/min/ml extract (ave) / GUS pmol MU/min/ml extract (ave), less backg 45.6: Rep 1 and 2; for GUS pmol MU/min/ml extract (ave) / GUS pmol MU/min/ml extract (ave), less backg 45.6: SA 1 mM, JA 0.1 mM; for GUS pmol MU/min/ml extract (ave): 20 h; for GUS pmol MU/min/ml extract (ave), less backg 45.6: second GUS column without own head
Method: The activity of the promoter was also studied in the presence of the putative defense activator, zmNPR1. Specifically, maize immature embryos (IE) were co-bombarded with the zmBBI1::GUS construct along with Act::luciferease as an internal standard and either a carrier DNA or an putative defense activators, zmNPR1 (U.S. patent application Ser. No. 09/551,778, filed Apr. 18, 2000, herein incorporated by reference). Particle preparation and DNA coating were carried out as described by Zhang et al.((2000) Plant Cell Reports 19:241-250) except for use of tungsten (1.0 μm) particles and different amounts of DNA: 50 μl zmBBI1::GUS at 0.02 μg/μl, Act::luciferase at 0.1 μg/μl, and 5 μl of the carrier or activator DNA at 1.0 μg/μl. The amount of DNA delivered for each bombardment were 0.33, 0.17, and 1.67 μg for zmBBI1::GUS, Act::luciferase, and the carrier or activator, respectively. The DNA concentration for zmBBI1::GUS was chosen in previous experiments for low background expression. A total of 45 IEs were used for each bombardment. IEs were placed on the osmotic medium (Vain et al. (1993) Plant Cell Reports 12:84-88) for 4 h before bombardment. The distance from the stopping screen to the target was 10 cm and bombardment was done at 650 psi with a PDS 1000/He device (Bio-Rad Laboratories).
After the bombardment the IEs were cultured on the same osmotic medium for 20-24 hr. Subsequently, the 45 IEs were randomly divided into three groups, 15 IEs for each. They were, then, transferred to three new petri dishes (60×25 mm) for chemical treatments. A piece of filter paper had been placed in each petri dish and wetted with 1.25 ml of 560Y liquid medium containing no chemical, 1 mM SA and 0.1 mM JA, respectively. The IEs were cultured again for another 20 h.
Three IEs from each group were then histochemically stained in X-Gluc staining solution (McCabe et al. (1988) Bio/Technology 6:923-926) for overnight at 37° C. The rest of the IEs were subjected to GUS fluorometric and luciferase assays. Fluorometric measurements of GUS activity were performed by using 50 μl protein extract prepared from the 12 IEs of each treatment and quantified in Fluoroskan Ascent FL (Labsystem) for two time points, 10 and 30 min. Luciferase activity was quantified in a Monolight 2010 (Analytical Luminescence Lab) by mixing 20 μl of protein extract with 100 μl of reaction buffer (Dual-Luciferase Reporter Assay System, Promega) and taking the measurements after 10 s. […]

expression of sequence operably linked to the proteinase inhibitor-like promoter (in words) ([2]; maize immature embryos co-bombarded with zmBBI1::GUS)	Compound	increase in expression level of the reporter sequence linked to the promoter [1] [fold]	normalized promoter activity (GUS/Luci), Table 2b ([2]; Rep 1, NPR1+)	normalized promoter activity (GUS/Luci), Table 2a ([2]; Rep 1, NPR1+)	normalized promoter activity (GUS/Luci), Table 2b ([2]; Rep 1, NPR1−)	normalized promoter activity (GUS/Luci), Table 2a ([2]; Rep 1, NPR1−)	normalized promoter activity (GUS/Luci), Table 2b ([2]; Rep 2, NPR1+)	normalized promoter activity (GUS/Luci), Table 2a ([2]; Rep 2, NPR1+)	normalized promoter activity (GUS/Luci), Table 2b ([2]; Rep 2, NPR1−)	normalized promoter activity (GUS/Luci), Table 2a ([2]; Rep 2, NPR1−)	GUS/Luci ([2]; zmNPR1 N)	GUS pmol MU/min/ml extract (ave) ([2]; zmNPR1 N)	GUS pmol MU/min/ml extract (ave), less backg 45.6 ([2]; zmNPR1 N)	GUS/Luci ([2]; zmNPR1 Y)	GUS pmol MU/min/ml extract (ave) ([2]; zmNPR1 Y)	GUS pmol MU/min/ml extract (ave), less backg 45.6 ([2]; zmNPR1 Y)
	C[C@@H]1NC(=O)[C@H]2CCCN2C(=O)[C@H](CCCCCC(=O)[C@@H]2CO2)NC(=O)[C@@H](C)NC1=O [HC-toxin]	2														
	CC/C=C\C[C@H]1C(=O)CC[C@@H]1CC(=O)O [JA, jasmonic acid]		3.39	3.19	8.73	6.5	3.54	3.19	11.42	11.74	11.74 and 6.50	62.22 pmol MU/min/ml extract and 58.61 pmol MU/min/ml extract	16.62 pmol MU/min/ml extract and 13.01 pmol MU/min/ml extract	3.19	55.25 pmol MU/min/ml extract and 54.57 pmol MU/min/ml extract	9.65 pmol MU/min/ml extract and 8.97 pmol MU/min/ml extract
induces expression	O=C(O)c1ccccc1O [SA, salicylic acid]		13.95	20.12	34.87	38.35	14.91	19.22	31.15	40.51	40.15 and 38.35	102.94 pmol MU/min/ml extract and 122.31 pmol MU/min/ml extract	57.34 pmol MU/min/ml extract and 76.71 pmol MU/min/ml extract	20.12 and 19.22	106.54 pmol MU/min/ml extract and 99.71 pmol MU/min/ml extract	60.94 pmol MU/min/ml extract and 54.11 pmol MU/min/ml extract
